{"source": "patent US4110438A", "about": "“Method of treating depression” (American Home Products Corporation, priority 1977, dated 1978)", "key": {"[1]": {"tested_on": "patients with endogenous depression", "conditions": "given in randomized order on days 1, 3 and 5; Lancet 1974; cited from earlier work"}, "[2]": {"tested_on": "patients suffering from depression caused by stress or emotional exhaustion", "test": "clinical investigation of LH-RH in patients suffering from depression", "format": "in vivo, human", "experimental": "Twenty-one patients, suffering from depression caused by stress or emotional exhaustion, were selected for the investigation. Fifteen were female adults, five were male adults and one patient was a young person […]. The latter patient suffered from existential depression and cryptorchidism. Each patient received 300 mcg of LH-RH in a single or divided dose once a month. In this instance the LH-RH was in the form of its hydrochloride acid addition salt and was prepared according to the syntheses reported by Immer et al., noted above. […] Relief from depression usually was observed within 12 hours and in almost all cases within 24 hours. The patients became more cheerful and aware of feeling much better. […] This latter patient sufferred from depression and sexual frigidity; however, in this instance there was no anhedonia regression and some erotic pulsations did occur. […] The greatest hormonal responses coincided with the most evident clinical improvement. In a control study, five patients with established depression were treated with an injection of only the vehicle for the above noted LH-RH dosage."}}, "data": [{"smiles": "NC(=O)[C@@H]1CCCN1C(=O)[C@H](Cc1cnc[nH]1)NC(=O)[C@@H]1CCC(=O)N1", "note": "[thyrotropin releasing hormone]", "values": [{"measurement": "clinical importance in the treatment of endogenous depression", "setting": "[1]", "value": "of no clinical importance"}]}, {"smiles": "CC(C)C[C@H](NC(=O)CNC(=O)[C@H](Cc1ccc(O)cc1)NC(=O)[C@H](CO)NC(=O)[C@H](Cc1c[nH]c2ccccc12)NC(=O)[C@H](Cc1c[nH]cn1)NC(=O)[C@@H]1CCC(=O)N1)C(=O)N[C@@H](CCCNC(=N)N)C(=O)N1CCC[C@H]1C(=O)NCC(N)=O", "note": "[LH-RH, (pyro)-Glu-His-Trp-Ser-Tyr-Gly-Leu-Arg-Pro-Gly-NH2]", "values": [{"measurement": "sleep, appetite and disposition for work", "setting": "[2]; 21 patients, 300 mcg once a month", "value": "Sleep and appetite were regularized as well as disposition for work"}, {"measurement": "time to relief from depression (almost all cases)", "setting": "[2]; 21 patients, 300 mcg once a month, in almost all cases", "value": "≤ 24", "unit": "h"}, {"measurement": "libido response", "setting": "[2]; 21 patients, 300 mcg once a month, most noticeable in female patients", "value": "An improvement in libido response occurred frequently"}, {"measurement": "time to relief from depression (usually)", "setting": "[2]; 21 patients, 300 mcg once a month, usually observed", "value": "≤ 12", "unit": "h"}, {"measurement": "onset of response after administration", "setting": "[2]; 21 patients, 300 mcg single or divided dose once a month, hydrochloride salt", "value": "response was immediate"}, {"measurement": "time until symptoms of depression disappear", "setting": "[2]; 100-800 mcg LH-RH or acid addition salt, moderately to severely depressed patient, usually", "value": "≤ 24", "unit": "h"}, {"measurement": "results in stress induced (reactive) depression", "setting": "[2]; dosages 100-800 mcg, patients suffering from stress induced depression", "value": "Especially effective and favorable results"}, {"measurement": "hormonal responses: serum levels of luteinizing hormone, follicular stimulating hormone, prolactin and thyrotrophin releasing hormone", "setting": "[2]; monitored during treatment, greatest responses coincided with most evident clinical improvement", "value": "increases in the serum levels"}, {"measurement": "patients not responding", "setting": "[2]; of 21 patients, 300 mcg once a month", "value": "Only one patient did not respond"}, {"measurement": "gonadotropin response in younger patients (growth of penis, development of scrota)", "setting": "[2]; younger patients, measured at 30 and 60 days after beginning of treatment", "value": "there was a gonadotropin response"}, {"measurement": "clinical importance in the treatment of endogenous depression", "setting": "[1]", "value": "of no clinical importance"}]}]}
